# Key:
# GAT-1 L460R = GAT-1 L460R (Rattus norvegicus, UniProt P23978, L460R); test: 3H GABA uptake, HEK293T, mutant cDNA alone ("homozygous"); type: cell-based; set-up: The coding region of rGAT-1 was inserted into pEYFP-C1 (Clontech, Palo Alto, CA); expressed in transfected cells; host or cells: HEK293T cells; details: PBA 2 mM, 24 hrs
# Method: GABA uptake activity was measured by the high-throughput 3H radio-labeling GABA uptake on a liquid scintillator with QuantaSmart. […] HEK293T cells were transfected with the wildtype or the mutant GAT-1^YFP cDNAs alone for 48 hr. […] HEK293T cells were transfected with the wildtype GAT-1^YFP alone or in mixture of the wildtype or the mutant cDNAs for 48 hr. In the mixed condition, the ratio of the wildtype GAT-1 with pcDNA or the mutant cDNAs are 1:1 with the total cDNA amount of 0.5 μg. […] Both wt and the mutant were normalized to its own DMSO treated conditions. 966 stands for the wildtype treated with CI-966 (50 μM) while 711 stands for NNC-711 (35 μM). (N=4-7 different transfections. In FIG. 4A and FIG. 4B, *P<0.05, **P<0.01, ***p<0.001 vs. wt 0. In FIG. C and FIG. 4D, *P<0.05, **P<0.01, ***p<0.001 vs. its own DMSO treated. In FIG. 4C, ns stands for no significance. One-way analysis of variance (ANOVA) and Newman-Keuls test. Values were expressed as mean±S.E.M.
# The plasmid cDNA encoding enhanced yellow fluorescent protein (EYFP)-tagged rat GAT-1 has been previously described. […]
# Briefly, cells were cultured in […] dishes for 3 days before the GABA uptake experiment in DMEM with 10% fetal bovine serum and 1% penicillin/streptomycin. […] Glacial acetic acid was added, and lysates were then determined on a liquid scintillator with QuantaSmart. […]
# GAT-1 = GAT-1 protein expression in brain regions of SLC6A1^+/S295L heterozygous mice; type: in vivo, mouse; details: S295L het; cerebellum; PBA 100 mg/kg, 7 days
# Description: FIGS. 8C-D show integrated density values (IDVs) for total GAT-1 from wild-type and het KI were normalized to the Na^+/K^+ ATPase or anti-glyceraldehyde-3-phosphate dehydrogenase (GAPDH) loading control (LC) in each specific brain region and plotted. N=4 from 4 pairs of mice. […] The vehicle treated in each brain region was taken as 1. N=4 from 4 pairs of mice for FIG. 8C, FIG. 8D, FIG. 8G and FIG. 8H, Values were expressed as mean±S.E.M. One way ANOVA or unpaired t test.
# The working solution was stored at 4° C.
# Data were expressed as mean±SEM. Proteins were quantified by Odyssey software and data were normalized to loading controls and then to the wildtype subunit protein, which was arbitrarily taken as 1 in each experiment. Fluorescence intensities from confocal microscopy experiments were determined using MetaMorph imaging software, and the measurements were carried out in ImageJ. For statistical significance, one-way or two-way analysis of variance (ANOVA) with post hoc Dunnett or Newman-Keuls test were used. In some cases, unpaired t-test or one sample t-test was performed (GraphPad Prism, La Jolla, CA), and statistical significance was taken as p<0.05.
smiles,measurement,setting,value
"O=C(O)CCCc1ccccc1 [PBA, 4-phenylbutyric acid]",GABA uptake normalized to its own DMSO treated condition,GAT-1 L460R,1.14±0.07
same,GAT-1 expression vs. same brain region of vehicle treated mice taken as 1,GAT-1,1.03±0.03

# Reference: patent publication US20260144769A1, “4-PHENYLBUTYRATE RESTORED GABA UPTAKE AND REDUCED SEIZURES IN SLC6A1 VARIANT-MEDIATED DISORDERS” (Vanderbilt University, priority 2022, published 2026)
